In patent US10323018B2 (Millennium Pharmaceuticals, Inc., priority 2015, dated 2019):

Assays:
hNAMPT protein = hNAMPT protein (Homo sapiens (Human), UniProt P43490); experiment: NAMPT enzyme assay (TR-FRET/HTRF with BodiPY ligand); type: binding; conditions: for inhibition at 1 µM: NAMPT inhibition at compound concentration 1 μM, read-out: Percent Inhibition; for IC50: NAMPT inhibition, IC50 range class
How it was run: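 His-tagged hNAMPT with anti-6His-Tb, incubated with compound and BodiPY ligand for 1 h at rt in the dark, in Tris-HCl pH 7.5 buffer with DTT, NaCl, MgCl2 and Tween 20. TR-FRET measured with 320 nm excitation as the 520/486 nm emission ratio. IC50 fitted relative to DMSO controls.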

PC3 cells = experiment: PC3 growth inhibition (Cell-titer glo, 72 hours); type: cell-based; conditions: Homo sapiens, PC-3, 72 h, read-out: Percent Viability, PC3 cells, compound concentration 1.667 μM, 72 hours
How it was run: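 PC3 cells grown in RPMI1640 plated at 8×10^4 cells/ml, incubated overnight, then exposed to compound diluted in AIM serum-free medium for 72 h at 37 °C, 5% CO2. Luminescence by CellTiter-Glo relative to DMSO controls; % viability at single concentration, GI50 or LD50 from concentration-response curves.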

Chain of hNAMPT protein (P43490 whole entry): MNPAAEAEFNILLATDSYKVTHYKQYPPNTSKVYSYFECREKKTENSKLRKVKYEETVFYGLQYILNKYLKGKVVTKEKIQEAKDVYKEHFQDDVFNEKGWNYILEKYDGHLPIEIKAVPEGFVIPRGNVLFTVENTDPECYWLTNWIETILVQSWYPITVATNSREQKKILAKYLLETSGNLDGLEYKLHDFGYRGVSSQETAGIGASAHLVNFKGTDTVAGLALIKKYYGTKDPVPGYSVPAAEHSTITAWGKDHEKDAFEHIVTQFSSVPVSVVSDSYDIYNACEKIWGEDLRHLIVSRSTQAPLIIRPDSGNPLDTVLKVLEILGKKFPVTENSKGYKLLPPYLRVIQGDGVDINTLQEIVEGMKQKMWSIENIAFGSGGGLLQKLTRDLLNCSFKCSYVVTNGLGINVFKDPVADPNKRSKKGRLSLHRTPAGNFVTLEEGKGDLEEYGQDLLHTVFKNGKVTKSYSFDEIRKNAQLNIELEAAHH

Compound	inhibition at 1 µM (hNAMPT protein) [%]	IC50 (hNAMPT protein) [nM]	viability at 1.667 µM (PC3 cells) [%]
CCOc1cc(-c2ccc(F)cc2)nc2cc(C(=O)NCCc3nnc(N)[nH]3)ccc12 [Compound I-142, N-[2-(5-amino-4H-1,2,4-triazol-3-yl)ethyl]-4-ethoxy-2-(4-fluorophenyl)quinoline-7-carboxamide]	89	> 100	14
CCOc1cc(-c2ccc(OC)nc2OC)nc2cc(C(=O)NCCCc3nnc[nH]3)ccc12 [Compound I-143, 2-(2,6-dimethoxypyridin-3-yl)-4-ethoxy-N-[3-(4H-1,2,4-triazol-3-yl)propyl]quinoline-7-carboxamide]	97	10 to 50	2
CCOc1cc(-c2cccnc2OC)nc2cc(C(=O)NCCc3c[nH]nc3C)ccc12 [Compound I-144, 4-ethoxy-2-(2-methoxypyridin-3-yl)-N-[2-(3-methyl-1H-pyrazol-4-yl)ethyl]quinoline-7-carboxamide]	94	10 to 50	2
CCOc1cc(-c2cnc(OC)cc2C)nc2cc(C(=O)NCCCc3nnc[nH]3)ccc12 [Compound I-145, 4-ethoxy-2-(6-methoxy-4-methyl-3-pyridyl)-N-[3-(4H-1,2,4-triazol-3-yl)propyl]quinoline-7-carboxamide]	86	> 100	2
CCOc1cc(-c2ccnc(C)c2)nc2cc(C(=O)NCCc3c[nH]nc3C)ccc12 [Compound I-146, 4-ethoxy-N-[2-(3-methyl-1H-pyrazol-4-yl)ethyl]-2-(2-methylpyridin-4-yl)quinoline-7-carboxamide]	87	50 to 100	2
CCCc1cc(-c2ccc(F)cc2)nc2cc(C(=O)NCCCc3cc[nH]n3)ccc12 [Compound I-147, 2-(4-fluorophenyl)-4-propyl-N-[3-(1H-pyrazol-3-yl)propyl]quinoline-7-carboxamide]	92	50 to 100	2
O=C(NCCCc1nnc[nH]1)c1ccc2c(-n3ccnc3)cc(-c3ccc(F)cc3)nc2c1 [Compound I-148, 2-(4-fluorophenyl)-4-(1H-imidazol-1-yl)-N-[3-(4H-1,2,4-triazol-3-yl)propyl]quinoline-7-carboxamide]	99	< 10	1
CCOc1cc(-c2ccnc(C)c2)nc2cc(C(=O)NCCCc3ccn[nH]3)ccc12 [Compound I-149, 4-ethoxy-2-(2-methylpyridin-4-yl)-N-[3-(1H-pyrazol-5-yl)propyl]quinoline-7-carboxamide]	96	10 to 50	2
CCOc1cc(-c2cccnc2OC)nc2cc(C(=O)NCCCc3ccn[nH]3)ccc12 [Compound I-150, 4-ethoxy-2-(2-methoxypyridin-3-yl)-N-[3-(1H-pyrazol-5-yl)propyl]quinoline-7-carboxamide]	95	10 to 50	2
CCNc1cc(-c2ccc(F)cc2)nc2cc(C(=O)NCCCc3nnc[nH]3)ccc12 [Compound I-151, 4-(ethylamino)-2-(4-fluorophenyl)-N-[3-(4H-1,2,4-triazol-3-yl)propyl]quinoline-7-carboxamide]	61	> 100	3
CCCc1cc(-c2ccc(F)cc2)nc2cc(C(=O)NCCc3c[nH]nc3C)ccc12 [Compound I-152, 2-(4-fluorophenyl)-N-[2-(3-methyl-1H-pyrazol-4-yl)ethyl]-4-propylquinoline-7-carboxamide]	84	> 100	2
CCOc1cc(-c2ccc(OC)nc2)nc2cc(C(=O)NCCc3cn[nH]c3C)ccc12 [Compound I-153, 4-ethoxy-2-(6-methoxypyridin-3-yl)-N-[2-(5-methyl-1H-pyrazol-4-yl)ethyl]quinoline-7-carboxamide]	98	10 to 50	2
CCOc1cc(-c2ccc(OC)nc2)nc2cc(C(=O)NCCCc3ccn[nH]3)ccc12 [Compound I-154, 4-ethoxy-2-(6-methoxypyridin-3-yl)-N-[3-(1H-pyrazol-5-yl)propyl]quinoline-7-carboxamide]	96	10 to 50	3
CCOc1cc(-c2ccnc(OC)c2)nc2cc(C(=O)NCCCc3ccn[nH]3)ccc12 [Compound I-155, 4-ethoxy-2-(2-methoxypyridin-4-yl)-N-[3-(1H-pyrazol-5-yl)propyl]quinoline-7-carboxamide]	98	10 to 50	2
COCCOc1cc(-c2ccc(F)cc2)nc2cc(C(=O)NCCCc3ncc[nH]3)ccc12 [Compound I-156, 2-(4-fluorophenyl)-N-[3-(1H-imidazol-2-yl)propyl]-4-(2-methoxyethoxy)quinoline-7-carboxamide]	100	< 10	2
Cc1cc(-c2cc(-c3ccc(F)cc3)c3ccc(C(=O)NCCCc4nnc[nH]4)cc3n2)ccn1 [Compound I-157, N-(3-(4H-1,2,4-triazol-3-yl)propyl)-4-(4-fluorophenyl)-2-(2-methylpyridin-4-yl)quinoline-7-carboxamide]	89	50 to 100	5
CCOc1cc(-c2ccncc2C)nc2cc(C(=O)NCCCc3nnc[nH]3)ccc12 [Compound I-158, 4-ethoxy-2-(3-methylpyridin-4-yl)-N-[3-(4H-1,2,4-triazol-3-yl)propyl]quinoline-7-carboxamide]	97	10 to 50	1
CCOc1cc(-c2cc(C)cnc2OC)nc2cc(C(=O)NCCCc3nnc[nH]3)ccc12 [Compound I-159, 4-ethoxy-2-(2-methoxy-5-methylpyridin-3-yl)-N-[3-(4H-1,2,4-triazol-3-yl)propyl]quinoline-7-carboxamide]	99	10 to 50	2
CCOc1cc(-c2ccc(F)cc2)nc2cc(C(=O)N[C@@H](C)c3nc4cnccc4[nH]3)ccc12 [Compound I-160, 4-ethoxy-2-(4-fluorophenyl)-N-[(1S)-1-(1H-imidazo[4,5-c]pyridin-2-yl)ethyl]quinoline-7-carboxamide]	60	> 100	> 99
CCOc1cc(-c2cc(F)cnc2OC)nc2cc(C(=O)NCCCc3nnc[nH]3)ccc12 [Compound I-161, 4-ethoxy-2-(5-fluoro-2-methoxypyridin-3-yl)-N-[3-(4H-1,2,4-triazol-3-yl)propyl]quinoline-7-carboxamide]	97	10 to 50	2
Cc1cc(-c2nc(-c3ccc(F)cc3)nc3cc(C(=O)NCCCc4nnc[nH]4)ccc23)ccn1 [Compound I-162, 2-(4-fluorophenyl)-4-(2-methylpyridin-4-yl)-N-[3-(4H-1,2,4-triazol-3-yl)propyl]quinazoline-7-carboxamide]	94	10 to 50	2
CCCc1cc(-c2ccc(F)cc2)nc2cc(C(=O)NCCCc3ncc[nH]3)ccc12 [Compound I-163, 2-(4-fluorophenyl)-N-[3-(1H-imidazol-2-yl)propyl]-4-propylquinoline-7-carboxamide]	97	< 10	2
